In US5047242A, “Azadirachtin derivative insecticides” (Native Plant Institute ("NPI"), priority 1987, dated 1991):
Values after ≈ are worked out from the molar mass of the structure shown. Read-outs that look alike come from different tables or passages of the source.

Test system: Heliothis virescens
Assay: Artificial diet feeding bioassay, mortality and growth inhibition in first-instar larvae
Format: in vivo, Heliothis virescens (tobacco budworm)
Conditions: for LC50: Heliothis virescens, po; for EC50 (concentration causing 50% growth inhibition): Table 1, first-instar Heliothis virescens larvae, parentheses = 95% confidence limits; for EC50 (concentration causing 50% growth inhibition) / EC50: artificial diet; for insecticidal activity (in words): Heliothis virescens feeding; for EC50: Table 5, larval growth reduced to 50% of control, first instar Heliothis virescens, 95% confidence limits
Excerpt: The results of the growth inhibitory and lethal activities of azadirachtin and these 8 derivatives when fed in an artificial diet to Heliothis virescens larvae are shown in Table 1. Similar to the results of Morgan, E. D., in "Natural pesticides from the Neem tree (Azadirachta indica A. Juss), Schmutterer, H., et al., Eds., Proc. First International Neem Conference (Rottach-Egern, 1980), German Agency for Technical Corporation,Eschborn, Germany, 1982, pps. 43-52 (hereinafter "Morgan"), neither deacetylation nor hydrogenation of the carbon-carbon double bond of the dihydrofuran ring moiety of azadirachtin had any significant effect on activity of the compound against H. virescens.
Mortality and growth inhibition in first-instar Heliothis
virescens larvae fed azadirachtin and eight derivatives in an
artificial diet (I. Kubo and J. A. Klocke, In: Plant Resistance to
Insects (P. A. Helin, Ed.), ACS Symposium Series 208, American Chemical
Society, Washington, D.C. (1983), pp. 329-346.).^a
^b LC50 values are the concentrations (ppm) causing 50%
^c EC50 values are the concentrations (ppm) causing 50% growth
^d Numbers in parentheses are the 95% confidence limits determined
using the methods of Litchfield and Wilcoxon, J. Pharmacol. Exp. Ther.
An artificial diet feeding bioassay with neonate larvae of tobacco budworm (Heliothis virescens) and fall armyworm (Spodoptera frugiperda) was used as previously described (Kubo and Klocke, 1983) to detect insecticidal activities in the plant extracts to monitor fractionation, and to determine the potency of the isolated constituents and derivatives. Potency was determined either as the effective concentration (EC50) of added material that is necessary to reduce larval growth to 50% of the control values or as the lethal concentration (LC50) of added material that is necessary to kill 50% of the treated larvae. EC50 and LC50 values were determined from log probit paper and analyzed statistically by the method of Litchfield and Wilcoxon, supra.

[1] = read-out: LC50 (concentration causing 50% mortality)

Structure (SMILES)	LC50 [1]	EC50 (concentration causing 50% growth inhibition)	insecticidal activity (in words)	LC50	EC50
C/C=C(\C)C(=O)OC1CC(OC(C)=O)C2(C(=O)OC)COC3C2C12COC(OC(C)=O)(C(=O)OC)C2C(C)(C12OC1(C)C1CC2OC2OC=CC21O)C3O (stereo not shown) [11-O-acetylazadirachtin]	0.95 mg/L (≈ 1.25 µM)	0.18 (0.08-0.40) ppm	–	–	–
C/C=C(\C)C(=O)OC1CC(OC(C)=O)C2(C(=O)OC)COC3C2C12COC(OC)(C(=O)OC)C2C(C)(C12OC1(C)C1CC2OC2OC=CC21O)C3O (stereo not shown) [11-O-methylazadirachtin]	25 mg/L (≈ 34 µM)	5.00 (1.54-16.25) ppm	–	–	–
CC(=O)C1C2(CO)C(OC(=O)/C=C/c3ccccc3)CC(O)C3(C)COC(C32)C(O)C1(C)C12OC1(C)C1CC2OC2OC=CC21O (stereo not shown) [Compound 10, 1-cinnamoylmelianolone]	–	–	approximately half that of azadirachtin	1.5 mg/L (≈ 2.35 µM)	0.12 ppm
CC(=O)OC1CC(OC(=O)/C=C/c2ccccc2)C2(CO)C3C(OCC13C)C(O)C(C)(C13OC1(C)C1CC3OC3OC=CC31O)C2C(C)=O (stereo not shown) [Compound 12, 1-cinnamoyl-3-0-acetylmelianolone]	–	–	approximately half that of azadirachtin	1.5 mg/L (≈ 2.2 µM)	0.15 ppm
CC(=O)OCC12C(OC(=O)/C=C/c3ccccc3)CC(OC(C)=O)C3(C)COC(C31)C(O)C(C)(C13OC1(C)C1CC3OC3OC=CC31O)C2C(C)=O (stereo not shown) [Compound 13, 1-cinnamoyl-3,19-0,0-diacetylmelianolone]	–	–	approximately half that of azadirachtin	1.5 mg/L (≈ 2.08 µM)	0.12 ppm
CC(=O)C1C2(CO)C(O)CC(O)C3(C)COC(C32)C(O)C1(C)C12OC1(C)C1CC2OC2OC=CC21O (stereo not shown) [Compound 14, decinnamoylmelianolone]	–	–	did not show good activity	10 mg/L (≈ 19.7 µM)	3.20 ppm
